# Reference: the supplement of paper PMC10627819
# How the values were obtained:
# Assay in all cases: Bliss interaction score (quartile over a dose matrix) (fitness difference); higher = more antagonism (negative = synergy)
# S. aureus DSM 20231 = tested on: S. aureus DSM 20231
# Outline: (§1)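 Values were capped at 1 after dividing OD595 at stationary-phase entry by the plate's robust no-drug mean. This ratio is fitness, and single-drug fitness was inferred from the combination data. The Bliss score is observed minus product-expected fitness, given as quartiles over technical, biological and donor/recipient replicates.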
# S. aureus Newman = tested on: S. aureus Newman
# Outline: as §1
# S. pneumoniae D39V = tested on: S. pneumoniae D39V
# Outline: as §1
# B. subtilis 168 = tested on: B. subtilis 168
# Outline: as §1
# 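Further: first quartile when negative (synergy) and third quartile when positive (antagonism).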
Compound,Bliss interaction score (S. aureus DSM 20231),Bliss interaction score (S. aureus Newman),Bliss interaction score (S. pneumoniae D39V),Bliss interaction score (B. subtilis 168),Bliss interaction score (S. aureus DSM 20231; main component drawn),Bliss interaction score (S. aureus Newman; main component drawn),Bliss interaction score (S. pneumoniae D39V; main component drawn),Bliss interaction score (B. subtilis 168; main component drawn)
N#CC(C#N)=NNc1cccc(Cl)c1 [CCCP] + CN(C)C(=O)C(CCN1CCC(O)(c2ccc(Cl)cc2)CC1)(c1ccccc1)c1ccccc1 [Loperamide],-0.0407,0.0942,-0.227,0.0251,–,–,–,–
CN(C)[C@@H]1C(O)=C(C(N)=O)C(=O)[C@@]2(O)C(O)=C3C(=O)c4c(O)ccc(Cl)c4[C@@](C)(O)[C@H]3C[C@@H]12 [Clortetracycline] + CC1=C\[C@@H](O)CC(=O)Cc2nc(co2)C(=O)N2CCC=C2C(=O)O[C@H](C(C)C)[C@H](C)/C=C/C(=O)NC\C=C\1 [Virginiamycin M1],-0.0704,-0.049,-0.0413,0.0837,–,–,–,–
CN(C)[C@@H]1C(O)=C(C(N)=O)C(=O)[C@@]2(O)C(O)=C3C(=O)c4c(O)ccc(Cl)c4[C@@](C)(O)[C@H]3C[C@@H]12 [Clortetracycline] + CC1(C)S[C@@H]2[C@H](NC(=O)Cc3ccccc3)C(=O)N2[C@H]1C(=O)O [PenicillinG],0.0499,-0.0614,-0.0336,0.123,–,–,–,–
COc1cccc2c1C(=O)c1c(O)c3c(c(O)c1C2=O)C[C@@](O)(C(=O)CO)C[C@@H]3O[C@H]1C[C@H](N)[C@H](O)[C@H](C)O1 [Doxorubicin] + CC(=O)O[C@H]1C[C@@]2(C)[C@@H](C[C@@H](O)[C@H]3[C@@]4(C)CC[C@@H](O)[C@@H](C)[C@@H]4CC[C@@]32C)/C1=C(\CCC=C(C)C)C(=O)O [Fusidic acid],-0.0285,0.0367,-0.0805,0.0613,–,–,–,–
C[C@H]1c2cccc(O)c2C(=O)C2=C(O)[C@]3(O)C(=O)C(C(N)=O)=C(O)[C@@H](N(C)C)[C@@H]3[C@@H](O)[C@@H]21 [Doxycycline] + CCCCCCCCCC(=O)N[C@@H]1[C@H]([C@@H]([C@H](O[C@H]1OC2=C3C=C4C=C2OC5=C(C=C(C=C5)[C@H]([C@H]6C(=O)N[C@@H](C7=C(C(=CC(=C7)O)OC8[C@H]([C@H]([C@@H]([C@H](O8)CO)O)O)O)C9=C(C=CC(=C9)[C@H](C(=O)N6)NC(=O)[C@@H]4NC(=O)[C@@H]1C2=CC(=CC(=C2)OC2=C(C=CC(=C2)[C@H](C(=O)N[C@H](CC2=CC(=C(O3)C=C2)Cl)C(=O)N1)N)O)O)O)C(=O)O)O[C@H]1[C@@H]([C@H]([C@@H]([C@H](O1)CO)O)O)NC(=O)C)Cl)CO)O)O [Teicoplanin],–,–,–,–,0.118,0.0478,-0.0489,0.0442
CC1(C)S[C@@H]2[C@H](NC(=O)Cc3ccccc3)C(=O)N2[C@H]1C(=O)O [PenicillinG] + CCCCCCCCCC(=O)N[C@@H]1[C@H]([C@@H]([C@H](O[C@H]1OC2=C3C=C4C=C2OC5=C(C=C(C=C5)[C@H]([C@H]6C(=O)N[C@@H](C7=C(C(=CC(=C7)O)OC8[C@H]([C@H]([C@@H]([C@H](O8)CO)O)O)O)C9=C(C=CC(=C9)[C@H](C(=O)N6)NC(=O)[C@@H]4NC(=O)[C@@H]1C2=CC(=CC(=C2)OC2=C(C=CC(=C2)[C@H](C(=O)N[C@H](CC2=CC(=C(O3)C=C2)Cl)C(=O)N1)N)O)O)O)C(=O)O)O[C@H]1[C@@H]([C@H]([C@@H]([C@H](O1)CO)O)O)NC(=O)C)Cl)CO)O)O [Teicoplanin],–,–,–,–,-0.0396,0.0744,-0.0521,-0.176
CO/N=C(\C(=O)N[C@@H]1C(=O)N2C(C(=O)O)=C(COC(N)=O)CS[C@H]12)c1ccco1 [Cefuroxime] + CCC[C@@H]1C[C@@H](C(=O)N[C@@H]([C@H]2O[C@H](SC)[C@H](O)[C@@H](O)[C@H]2O)[C@H](C)Cl)N(C)C1 [Clindamycin],-0.156,-0.0892,0.0539,-0.048,–,–,–,–
CC(=O)Oc1ccccc1C(=O)O [Acetylsalicylicacid] + O=C1CN(/N=C/c2ccc([N+](=O)[O-])o2)C(=O)N1 [Nitrofurantoin],-0.0978,-0.0905,0.0904,-0.202,–,–,–,–
N#CC(C#N)=NNc1cccc(Cl)c1 [CCCP] + CC1=C\[C@@H](O)CC(=O)Cc2nc(co2)C(=O)N2CCC=C2C(=O)O[C@H](C(C)C)[C@H](C)/C=C/C(=O)NC\C=C\1 [Virginiamycin M1],0.0407,-0.0388,0.0981,-0.0262,–,–,–,–
CC1(C)S[C@@H]2[C@H](NC(=O)Cc3ccccc3)C(=O)N2[C@H]1C(=O)O [PenicillinG] + CO[C@H]1/C=C/O[C@@]2(C)Oc3c(C)c(O)c4c(O)c(c(/C=N/N5CCN(C)CC5)c(O)c4c3C2=O)NC(=O)/C(C)=C\C=C\[C@H](C)[C@H](O)[C@@H](C)[C@@H](O)[C@@H](C)[C@H](OC(C)=O)[C@@H]1C [Rifampicin],0.036,0.0252,-0.112,0.0761,–,–,–,–
CC1(C)S[C@@H]2[C@H](NC(=O)Cc3ccccc3)C(=O)N2[C@H]1C(=O)O [PenicillinG] + CC[C@H]1OC(=O)[C@H](C)C(=O)[C@H](C)[C@@H](O[C@@H]2O[C@H](C)C[C@H](N(C)C)[C@H]2O)[C@](C)(OC)C[C@@H](C)C(=O)[C@H](C)[C@H]2N(CCCCn3cnc(-c4cccnc4)c3)C(=O)O[C@]12C [Telithromycin],0.0277,-0.0465,0.0452,0.0511,–,–,–,–
O=C(O)c1cn(C2CC2)c2cc(N3CCNCC3)c(F)cc2c1=O [Ciprofloxacin] + CN[C@H](CC(C)C)C(=O)N[C@H]1C(=O)N[C@@H](CC(N)=O)C(=O)N[C@H]2C(=O)N[C@H]3C(=O)N[C@H](C(=O)N[C@H](C(=O)O)c4cc(O)cc(O)c4-c4cc3ccc4O)[C@H](O[C@H]3C[C@](C)(N)[C@@H](O)[C@H](C)O3)c3ccc(c(Cl)c3)Oc3cc2cc(c3O[C@@H]2O[C@H](CO)[C@@H](O)[C@H](O)[C@H]2O[C@H]2C[C@](C)(NCc3ccc(-c4ccc(Cl)cc4)cc3)[C@@H](O)[C@H](C)O2)Oc2ccc(cc2Cl)[C@H]1O [Oritavancin],-0.0468,-0.0474,0.0622,-0.0274,–,–,–,–
CN(C)[C@@H]1C(O)=C(C(N)=O)C(=O)[C@@]2(O)C(O)=C3C(=O)c4c(O)ccc(Cl)c4[C@@](C)(O)[C@H]3C[C@@H]12 [Clortetracycline] + C/C(=C\C(=O)OCCCCCCCCC(=O)O)C[C@@H]1OC[C@H](C[C@@H]2O[C@H]2[C@@H](C)[C@H](C)O)[C@@H](O)[C@H]1O [Pseudomonic acid],0.0276,0.0209,0.0729,-0.0689,–,–,–,–
N#CC(C#N)=NNc1cccc(Cl)c1 [CCCP] + CC(C1CCC(C(O1)OC2C(CC(C(C2O)OC3C(C(C(CO3)(C)O)NC)O)N)N)N)NC [Gentamicin],–,–,–,–,0.0926,0.116,0.0882,0.259
CC(=O)Oc1ccccc1C(=O)O [Acetylsalicylicacid] + CN[C@H](CC(C)C)C(=O)N[C@H]1C(=O)N[C@@H](CC(N)=O)C(=O)N[C@H]2C(=O)N[C@H]3C(=O)N[C@H](C(=O)N[C@H](C(=O)O)c4cc(O)cc(O)c4-c4cc3ccc4O)[C@H](O[C@H]3C[C@](C)(N)[C@@H](O)[C@H](C)O3)c3ccc(c(Cl)c3)Oc3cc2cc(c3O[C@@H]2O[C@H](CO)[C@@H](O)[C@H](O)[C@H]2O[C@H]2C[C@](C)(NCc3ccc(-c4ccc(Cl)cc4)cc3)[C@@H](O)[C@H](C)O2)Oc2ccc(cc2Cl)[C@H]1O [Oritavancin],0.0533,0.086,0.071,-0.0215,–,–,–,–
O=C(O)c1cn(C2CC2)c2cc(N3CCNCC3)c(F)cc2c1=O [Ciprofloxacin] + CC1(C)S[C@@H]2[C@H](NC(=O)Cc3ccccc3)C(=O)N2[C@H]1C(=O)O [PenicillinG],-0.0624,-0.0565,0.0662,0.0481,–,–,–,–
CC(=O)Oc1ccccc1C(=O)O [Acetylsalicylicacid] + Cc1cc(NS(=O)(=O)c2ccc(N)cc2)no1 [Sulfamethoxazol],-0.0892,-0.0624,-0.0493,0.0808,–,–,–,–
CN(C)[C@@H]1C(O)=C(C(N)=O)C(=O)[C@@]2(O)C(O)=C3C(=O)c4c(O)ccc(Cl)c4[C@@](C)(O)[C@H]3C[C@@H]12 [Clortetracycline] + CN[C@@H]1[C@H](O)[C@H](NC)[C@H]2O[C@@]3(O)C(=O)C[C@@H](C)O[C@H]3O[C@@H]2[C@H]1O [Spectinomycin],-0.0598,-0.0716,0.0439,-0.0478,–,–,–,–
C[C@@H]1O[C@@H]1P(=O)(O)O [Fosfomycin] + Oc1cc(Cl)ccc1Oc1ccc(Cl)cc1Cl [Triclosan],0.0662,0.0573,0.0597,-0.0701,–,–,–,–
N#CC(C#N)=NNc1cccc(Cl)c1 [CCCP] + CCN(CC)CCOC(=O)c1ccc(N)cc1 [Procaine],-0.0522,-0.0249,0.0668,0.0328,–,–,–,–
CC(=O)Oc1ccccc1C(=O)O [Acetylsalicylicacid] + CN[C@@H]1[C@H](O[C@H]2[C@H](O[C@H]3[C@H](O)[C@@H](O)[C@H](N=C(N)N)[C@@H](O)[C@@H]3N=C(N)N)O[C@@H](C)[C@]2(O)C=O)O[C@@H](CO)[C@H](O)[C@H]1O [Streptomycin],-0.0889,0.0762,-0.0479,0.222,–,–,–,–
CN(C)[C@@H]1C(O)=C(C(N)=O)C(=O)[C@@]2(O)C(O)=C3C(=O)c4c(O)ccc(Cl)c4[C@@](C)(O)[C@H]3C[C@@H]12 [Clortetracycline] + CC(C1CCC(C(O1)OC2C(CC(C(C2O)OC3C(C(C(CO3)(C)O)NC)O)N)N)N)NC [Gentamicin],–,–,–,–,0.0919,0.141,-0.183,0.181
CO/N=C(\C(=O)N[C@@H]1C(=O)N2C(C(=O)O)=C(COC(C)=O)CS[C@H]12)c1csc(N)n1 [Cefotaxime] + CC(=O)O[C@H]1C[C@@]2(C)[C@@H](C[C@@H](O)[C@H]3[C@@]4(C)CC[C@@H](O)[C@@H](C)[C@@H]4CC[C@@]32C)/C1=C(\CCC=C(C)C)C(=O)O [Fusidic acid],0.0189,0.0487,0.11,0.0613,–,–,–,–
CC(=O)Oc1ccccc1C(=O)O [Acetylsalicylicacid] + CC(=O)O[C@H]1C[C@@]2(C)[C@@H](C[C@@H](O)[C@H]3[C@@]4(C)CC[C@@H](O)[C@@H](C)[C@@H]4CC[C@@]32C)/C1=C(\CCC=C(C)C)C(=O)O [Fusidic acid],0.0354,-0.0211,0.0675,-0.0821,–,–,–,–
CC(=O)Oc1ccccc1C(=O)O [Acetylsalicylicacid] + CN1C2=CC=CC=C2N=C3C1=CC=CC3=O [Pyocyanin],-0.0748,-0.0562,-0.0649,-0.0887,–,–,–,–
CC1(C)S[C@@H]2[C@H](NC(=O)Cc3ccccc3)C(=O)N2[C@H]1C(=O)O [PenicillinG] + CN(C)c1cc(NC(=O)CNC(C)(C)C)c(O)c2c1C[C@H]1C[C@H]3[C@H](N(C)C)C(O)=C(C(N)=O)C(=O)[C@@]3(O)C(O)=C1C2=O [Tigecycline],-0.0277,0.0515,-0.103,0.0408,–,–,–,–
COc1cccc2c1C(=O)c1c(O)c3c(c(O)c1C2=O)C[C@@](O)(C(=O)CO)C[C@@H]3O[C@H]1C[C@H](N)[C@H](O)[C@H](C)O1 [Doxorubicin] + CC1(C)S[C@@H]2[C@H](NC(=O)Cc3ccccc3)C(=O)N2[C@H]1C(=O)O [PenicillinG],0.0914,-0.0818,0.0966,0.0777,–,–,–,–
